According to patent US7879887B2, “α-amino acid derivatives and medicaments containing the same as an active ingredient” (Nissan Chemical Industries, Ltd., priority 2006, dated 2011):

Legend:
CDK1/Cyclin B complex = biological target: T1, CDK1/Cyclin B complex (Homo sapiens, UniProt P06493); test: In vitro kinase assay, CDK1/Cyclin B complex; assay type: biochemical; conditions: recombinant protein (Upstate)
T1 construct: purchased Upstate Inc. 14-450
Experimental: (§1) Inhibitory activity against Aurora A, CDK1/Cyclin B complex, CDK2/Cyclin E complex and CDK3/Cyclin E complex were measured by in vitro kinase assay using recombinant proteins. The assays were carried out by using recombinant proteins (Upstate Inc.) for Aurora A, CDK1/Cyclin B complex, CDK2/Cyclin E complex and CDK3/Cyclin E complex (respective cat. nos. 14-511, 14-450, 14-448 and 14-487), in accordance with the procedure described in the product instructions thereof. The 50% inhibitory concentrations (IC50 values) were calculated by assigning measured values in the case of not containing a test compound to an inhibition of 0%, and assigning measured values in the case of not containing a test compound and enzyme to an inhibition of 100%.

CDK2/Cyclin E complex = CDK2/Cyclin E complex (Homo sapiens, UniProt P24941); test: In vitro kinase assay, CDK2/Cyclin E complex; assay type: biochemical; conditions: recombinant protein (Upstate); read-out: CDK2/cyclinE IC50
Experimental: (§2) Inhibitory activity against Aurora A, CDK1/Cyclin B complex, CDK2/Cyclin E complex and CDK3/Cyclin E complex were measured by in vitro kinase assay using recombinant proteins.

CDK3/Cyclin E complex = biological target: T2, CDK3/Cyclin E complex (Homo sapiens, UniProt Q00526); test: In vitro kinase assay, CDK3/Cyclin E complex; assay type: biochemical; conditions: recombinant protein (Upstate); read-out: CDK3/cyclinE IC50
T2 construct: purchased Upstate Inc. 14-487
T2 sequence (Q00526 whole entry): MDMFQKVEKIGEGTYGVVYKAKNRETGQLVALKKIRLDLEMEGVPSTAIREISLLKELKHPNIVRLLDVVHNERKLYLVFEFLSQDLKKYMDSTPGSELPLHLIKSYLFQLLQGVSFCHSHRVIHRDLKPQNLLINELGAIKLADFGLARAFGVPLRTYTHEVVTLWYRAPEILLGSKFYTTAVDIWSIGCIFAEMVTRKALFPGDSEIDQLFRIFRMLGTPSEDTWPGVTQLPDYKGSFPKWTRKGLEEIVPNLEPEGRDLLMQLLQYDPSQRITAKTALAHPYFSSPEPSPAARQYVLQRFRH
T2 sequence (P24864 whole entry partner): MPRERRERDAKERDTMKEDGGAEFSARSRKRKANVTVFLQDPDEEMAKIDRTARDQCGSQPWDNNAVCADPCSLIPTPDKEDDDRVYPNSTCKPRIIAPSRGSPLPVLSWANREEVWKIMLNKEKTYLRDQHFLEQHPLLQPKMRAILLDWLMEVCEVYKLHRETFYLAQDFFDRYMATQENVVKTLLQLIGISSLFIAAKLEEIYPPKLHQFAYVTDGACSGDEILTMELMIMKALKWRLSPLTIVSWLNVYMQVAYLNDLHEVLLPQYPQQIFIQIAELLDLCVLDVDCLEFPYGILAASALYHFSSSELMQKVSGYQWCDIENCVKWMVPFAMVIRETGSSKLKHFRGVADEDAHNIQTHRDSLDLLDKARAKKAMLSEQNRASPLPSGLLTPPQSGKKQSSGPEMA
Experimental: as §2

leukemia cell line KG-1a = test: Cell proliferation inhibitory activity, KG-1a; assay type: cell-based; conditions: Homo sapiens, 96 h, cells counted 4 days later with Cell Counting Kit-8
Experimental: (§3) Evaluations were carried out using colon carcinoma cell line SW620 (Cat. No. CCL-227), lung carcinoma cell line NCI-H460 (Cat. No. HTB-177), prostate cancer cell line DU 145 (Cat. No. HTB-81), breast cancer cell line MDA-MB-231 (Cat. No. HTB26) and leukemia cell line KG-1a (Cat. No. CCL-246.1) purchased from ATCC, pancreatic cancer cell line MIAPaCa-2 (Cat. No. CRL-1420) purchased from Dainippon Pharmaceutical, and ovarian cancer cell line IGROV1 received from the Netherland Cancer Institute. The cells were cultured under the conditions recommended by the supplier for each cell line, or with respect to IGROV1, according to the method described in Cancer Res. 59: 4559-4563, 1999. Cells suspended in media were added to solutions containing the test substances at various concentrations followed by culturing in a 5% CO2 incubator at 37° C. The numbers of cells were counted 4 days later with the Cell Counting Kit-8. IC50 values were calculated by assigning measured values in the case of not containing a test substance to an inhibition of 0%, and assigning measured values in the case of not containing a test substance or cells to an inhibition of 100%.

Aurora A = biological target: T3, Aurora A (Homo sapiens, UniProt O14965); test: In vitro kinase assay, Aurora A; assay type: biochemical; conditions: recombinant protein (Upstate)
T3 construct: purchased Upstate Inc. 14-511
T3 sequence (O14965 1-403): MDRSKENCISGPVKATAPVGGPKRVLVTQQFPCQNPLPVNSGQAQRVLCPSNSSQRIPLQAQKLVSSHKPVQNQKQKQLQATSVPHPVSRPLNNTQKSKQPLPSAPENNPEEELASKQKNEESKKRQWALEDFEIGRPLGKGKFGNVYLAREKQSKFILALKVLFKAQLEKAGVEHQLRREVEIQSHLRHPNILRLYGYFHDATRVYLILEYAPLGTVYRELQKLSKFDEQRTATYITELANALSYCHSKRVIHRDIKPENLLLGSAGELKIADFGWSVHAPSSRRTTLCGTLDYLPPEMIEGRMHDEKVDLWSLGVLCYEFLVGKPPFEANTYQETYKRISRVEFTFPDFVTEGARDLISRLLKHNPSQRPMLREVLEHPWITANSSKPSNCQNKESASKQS
Experimental: as §1

[1] = system: colon carcinoma cell line SW620; test: Cell proliferation inhibitory activity, SW620; assay type: cell-based, human; conditions: Homo sapiens, SW-620, 96 h, cells counted 4 days later with Cell Counting Kit-8
Experimental: as §3

[2] = system: lung carcinoma cell line NCI-H460; test: Cell proliferation inhibitory activity, NCI-H460; assay type: cell-based; conditions: Homo sapiens, 96 h, cells counted 4 days later with Cell Counting Kit-8
Experimental: as §3

[3] = system: prostate cancer cell line DU 145; test: Cell proliferation inhibitory activity, DU 145; assay type: cell-based, human; conditions: Homo sapiens, 96 h, cells counted 4 days later with Cell Counting Kit-8
Experimental: as §3

recombinant human βARK1 = biological target: T4, recombinant human βARK1 (Homo sapiens, UniProt P25098); test: Inhibitory activity against βARK1 (33P phosphorylation of synthetic peptide); assay type: biochemical; conditions: recombinant human βARK1, 60 minutes at room temperature
T4 construct: made in house; host or cells: Sf-9 insect cells (baculovirus, pBacPAK8)
T4 sequence (P25098 1-689): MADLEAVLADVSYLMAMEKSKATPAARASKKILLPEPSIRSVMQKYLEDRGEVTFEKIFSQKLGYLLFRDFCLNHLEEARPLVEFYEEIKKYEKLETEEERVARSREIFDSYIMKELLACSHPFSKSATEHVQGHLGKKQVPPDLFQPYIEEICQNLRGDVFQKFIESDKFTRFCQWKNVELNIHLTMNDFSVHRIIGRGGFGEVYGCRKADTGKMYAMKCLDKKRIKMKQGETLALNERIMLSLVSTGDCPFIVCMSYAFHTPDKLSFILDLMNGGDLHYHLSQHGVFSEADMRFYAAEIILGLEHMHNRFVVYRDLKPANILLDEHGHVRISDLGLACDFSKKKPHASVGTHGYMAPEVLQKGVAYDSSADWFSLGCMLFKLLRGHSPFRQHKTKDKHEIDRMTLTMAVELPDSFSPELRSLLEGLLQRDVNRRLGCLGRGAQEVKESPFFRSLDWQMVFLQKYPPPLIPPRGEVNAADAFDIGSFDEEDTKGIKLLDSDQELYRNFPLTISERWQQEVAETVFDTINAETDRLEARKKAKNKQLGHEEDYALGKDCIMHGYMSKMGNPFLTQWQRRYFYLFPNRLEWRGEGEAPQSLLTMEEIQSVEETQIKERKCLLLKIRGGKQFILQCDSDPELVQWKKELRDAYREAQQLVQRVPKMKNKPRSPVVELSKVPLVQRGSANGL
Experimental: Human βARK1 was amplified by PCR based on the base sequence of human βARK1 mRNA registered in GenBank (Accession No. M80776) using a human leukocyte cDNA library (Gibco BRL Cat. No. 10421-022) as a template. The amplified cDNA fragment was inserted into a pBacPAK8 vector (Clontech) to construct a plasmid.
Recombinant human βARK1 was expressed using the BacPAK Baculovirus Expression System (Clontech, Cat. No. K1601-1). 1×10^6 Sf-9 cells were adhered to a 35 mm dish in 2.5 mL of TMN-FH Insect Medium containing 10 vol % FBS (Pharminogen, Cat. No. PM-21227M) and cultured overnight at 27° C. On the following day, the medium was removed and 500 ng of the above plasmid, BacPAK6 viral DNA cleaved with Bsu36I (5 μL) and 1.5 mL of the same medium mixed with 4 μL of Bacfectin were added followed by culturing for 5 hours, further adding 1.5 mL of medium and subsequently culturing for 5 days. […] The culture supernatant after 5 days was recovered and a plaque assay was carried out to isolate single plaques. These were then infected into Sf-9 cells and the resulting culture supernatant was designated as Passage 1 (1−3×10^11 pfu/mL). Passage 1 was added to 3×10^7 Sf-9 cells to a multiplicity of infection (MOI) of 0.1 (pfu/cell), suspension culturing was carried out for 5 days using a spinner flask, and the resulting culture supernatant was designated as Passage 2 (4×10^10 pfu/mL) and used as a viral liquid for large-volume expression.
Sf-9 cells at 3×10^9 cells/200 mL were infected by adding Passage 2 to an MOI of 100 followed by addition of medium to bring to a liquid volume of 2 L and further culturing for 3 days. After recovering the cells by centrifugation and washing three times with PBS, the cells were suspended in 100 mL of Lysis Buffer (20 mmol/L HEPES-HCl (pH 7.2), 5 mmol/L EDTA, 3 mmol/L phenylmethylsulfonyl fluoride (PMSF)). After lysing the cells by ultrasonic treatment at low temperature, the supernatant was recovered by centrifuging (45,000×g, 15 minutes) (sup1). NaCl was added to the resulting supernatant to a final concentration of 250 mmol/L followed by ultracentrifugation (300,000×g, 60 minutes) and using the subsequent supernatant as a crude cell extract (sup2).
Purification was carried out with reference to the literature (Benovic, J. L., Methods Enzymol. 1991; 200: 351-362; Kim, C. M. et al., Receptor 1993; 3: 39-55; Sohlemann, P. et al., FEBS Letters 1993; 324: 59-62). The crude cell extract was accurately brought to a volume of 400 mL with Buffer C (20 mmol/L HEPES-HCl (pH 7.2), 5 mmol/L EDTA, 0.02 vol % Triton X-100) followed by loading onto a 50 mL SP-Sepharose FF (Amersham Pharmacia Biotech) column equilibrated with Buffer C. […] ETA was carried out on each fraction using anti-GRK2 antibody (Santa-Cruz Cat. No. SC-562) and the positive fractions were collected (GRK2=βARK1). This was then diluted three-fold with Buffer C and loaded on a 5 mL HiTrap Heparin column (Amersham Pharmacia Biotech) column equilibrated with Buffer C. After washing the column with Wash Buffer (100 mmol/L NaCl, Buffer C), the column was eluted with an NaCl concentration gradient (100 to 600 mmol/L NaCl for 100 minutes, flow rate: 1 mL/min). The positive fractions as determined by ETA were collected and stored in a freezer at −80° C.
A synthetic peptide having an amino acid sequence of biotinated-[…] was used in accordance with a previous report (Chen, C. Y. et al., J. Biol. Chem. 1993; 268: 7825-7831). This synthetic peptide can also be synthesized with reference to known synthesis methods (for example, Chen, C. Y. et al., J. Biol. Chem. 1993; 268: 7825-7831, Biochemistry 1991; 30: 5118-5125). 2 μl of a DMSO solution in which the test compound was diluted to as to be […] the final concentration was dispensed into a 96-well plate (round bottom) (Falcon 351190) (final concentration: 4 vol % DMSO). […]

T1 sequence (P06493 whole entry): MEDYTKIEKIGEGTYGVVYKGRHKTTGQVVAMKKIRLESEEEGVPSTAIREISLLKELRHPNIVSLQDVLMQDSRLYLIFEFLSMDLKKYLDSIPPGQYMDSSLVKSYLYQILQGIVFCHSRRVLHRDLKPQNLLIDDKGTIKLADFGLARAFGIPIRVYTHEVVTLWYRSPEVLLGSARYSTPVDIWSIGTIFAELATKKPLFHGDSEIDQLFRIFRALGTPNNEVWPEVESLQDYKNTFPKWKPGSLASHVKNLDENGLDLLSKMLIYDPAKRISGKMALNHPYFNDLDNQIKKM
T1 sequence (P14635 whole entry partner): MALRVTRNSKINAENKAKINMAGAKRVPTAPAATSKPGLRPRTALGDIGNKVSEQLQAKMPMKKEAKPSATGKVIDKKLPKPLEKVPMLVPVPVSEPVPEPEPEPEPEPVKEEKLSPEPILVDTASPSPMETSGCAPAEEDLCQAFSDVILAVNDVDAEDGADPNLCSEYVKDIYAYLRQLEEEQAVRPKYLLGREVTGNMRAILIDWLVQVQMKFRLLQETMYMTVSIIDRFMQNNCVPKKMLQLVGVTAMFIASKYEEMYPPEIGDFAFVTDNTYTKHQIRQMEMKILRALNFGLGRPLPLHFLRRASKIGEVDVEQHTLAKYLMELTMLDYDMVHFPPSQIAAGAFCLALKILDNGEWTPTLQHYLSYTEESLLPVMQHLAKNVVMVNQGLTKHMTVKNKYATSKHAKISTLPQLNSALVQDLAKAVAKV

Compound	IC50 (CDK1/Cyclin B complex) [nM]	IC50 (CDK3/Cyclin E complex) [nM]	IC50 (Aurora A) [nM]	IC50 (recombinant human βARK1) [nM]	IC50 (CDK2/Cyclin E complex) [nM]	IC50 (leukemia cell line KG-1a) [nM]	IC50 [1] [nM]	IC50 [2] [nM]	IC50 [3] [nM]
O=C(CNc1ccc(Cl)cc1)Nc1nc2ccc3[nH]ncc3c2s1 [compound 9]	372	81	–	–	40	< 100	–	–	–
CC(C)CC(Nc1cccc(O)c1)C(=O)Nc1nc2ccc3[nH]ncc3c2s1 (centres unmarked) [compound 25]	–	448	137	–	366	< 100	1600	3200	–
CC(C)(Nc1ccc(Cl)nc1)C(=O)Nc1nc2c(C(F)(F)F)cc3[nH]ncc3c2s1 [compound 96]	–	277	–	–	347	–	2300	3900	3600
CC(C)(Nc1cccc(C(=O)NCCC(N)=O)c1)C(=O)Nc1nc2c(C(F)(F)F)cc3[nH]ncc3c2s1 [compound 101]	39	21	118	–	30	–	2000	–	4400
CC(=O)Nc1cc(NC(C(=O)Nc2nc3c(C(F)(F)F)cc4[nH]ncc4c3s2)c2ccccc2)ccc1Cl (centres unmarked) [compound 30]	–	128	–	9.8	172	–	1800	4100	2700
CCC(=O)Nc1cc(NC(C)(C)C(=O)Nc2nc3c(C(F)(F)F)cc4[nH]ncc4c3s2)ccc1Cl [compound 56]	–	304	–	3.2	390	400	1100	2500	2500
CC(C)(Nc1cccc(C(=O)NCC(=O)OCCO)c1)C(=O)Nc1nc2c(C(F)(F)F)cc3[nH]ncc3c2s1 [compound 86]	483	85	66	–	274	–	–	–	–

The next lines start with results.

IC50 (CDK1/Cyclin B complex) [nM]	IC50 (CDK3/Cyclin E complex) [nM]	IC50 (Aurora A) [nM]	IC50 (recombinant human βARK1) [nM]	Compound	IC50 (CDK2/Cyclin E complex) [nM]	IC50 (leukemia cell line KG-1a) [nM]	IC50 [1] [nM]	IC50 [2] [nM]	IC50 [3] [nM]
238	70	106	7.9	CC(C)(Nc1ccc(Cl)c(C(=O)NCCC(=O)O)c1)C(=O)Nc1nc2c(C(F)(F)F)cc3[nH]ncc3c2s1 [compound 139]	168	–	–	–	–
446	160	247	–	CC(C)(Nc1cccc(C(=O)NCCCC(=O)O)c1)C(=O)Nc1nc2c(C(F)(F)F)cc3[nH]ncc3c2s1 [compound 140]	428	–	–	–	–
259	134	76	7.7	CC(C)(Nc1ccc(Cl)c(C(=O)NCC(=O)O)c1)C(=O)Nc1nc2c(C(F)(F)F)cc3[nH]ncc3c2s1 [compound 145]	194	–	–	–	–
446	99	19	–	CC(C)(Nc1ccc(Cl)c(C(=O)O)c1)C(=O)Nc1nc2c(C(F)(F)F)cc3[nH]ncc3c2s1 [compound 136]	295	–	–	–	–
–	279	–	12	CC(C)(Nc1ccc(Cl)c(-n2cc[nH]c2=O)c1)C(=O)Nc1nc2c(C(F)(F)F)cc3[nH]ncc3c2s1 [compound 97]	–	–	–	–	–
105	30	39	–	CC(C)(Nc1ccc(Cl)c(C(=O)NCCCS(N)(=O)=O)c1)C(=O)Nc1nc2c(C(F)(F)F)cc3[nH]ncc3c2s1 [compound 102]	76	–	–	–	–
